Results on 7 compounds are retold here after DBAASP.

Test systems include Escherichia coli; Staphylococcus aureus; Enterococcus faecium; Pseudomonas aeruginosa; Proteus vulgaris; Escherichia coli ML-35; Escherichia coli OP50.
What all share (assay): ≥ marks a high value that may be exact or a test limit, other limits are often not marked, values filed in µg/mL are converted to µM
The test system of experiment [1] is Bacillus subtilis IFO 3143.
For experiment [2], the system named is Staphylococcus aureus IFO 12732.
The test system of experiment [3] is Pseudomonas aeruginosa IFO 12582.
The subject of experiment [4] is Escherichia coli IFO 12734.
Experiment [5] relates to Bacillus subtilis IFO 3513.
For experiment [6], the system named is Aspergillus flavus KCTC 1375.
The test system of experiment [7] is Pseudomonas aeruginosa ATCC 27853.
Experiment [8] has as its system Candida albicans ATCC 90028.
Experiment [9] relates to Malassezia furfur KCTC 7744.
Experiment [10] relates to Enterococcus faecium ATCC 19434.
Experiment [11] concerns Escherichia coli O157:H7 ATCC 43895.
Experiment [12] relates to Staphylococcus aureus ATCC 25923.
Experiment [13] has as its system Escherichia coli ATCC 25922.
Experiment [14] has as its system Staphylococcus aureus ATCC 25929.
Experiment [15] concerns Fusarium oxysporum KCTC 6084.
The subject of experiment [16] is Bacillus megaterium KCTC 1096.
Experiment [17] concerns Candida albicans KCTC 7121.
For experiment [18], the system named is Aspergillus flavus KCTC 7375.
Experiment [19] concerns Pseudomonas aeruginosa KCTC 1637.
Experiment [20] concerns Trichosporon beigelii KCTC 7251.
Experiment [21] has as its system Staphylococcus aureus KCTC 1621.
In experiment [22] the test system is Bacillus subtilis KCTC 1918.
The test system of experiment [23] is Escherichia coli KCTC 1682.
Experiment [24] concerns Serratia marcescens ATCC 8100.
The subject of experiment [25] is Salmonella enterica subsp. enterica serovar Typhimurium ATCC 14028.

In brackets after ≈: the same amount, converted by molar mass. Bounds are passed on as bounds.

The MIC is the lowest concentration found to suppress growth. Regarding `CC(C)C[C@H](NC(=O)[C@H](Cc1ccc(O)cc1)NC(=O)[C@H](Cc1cnc[nH]1)NC(=O)[C@@H](NC(=O)[C@H](CC(C)C)NC(=O)[C@H](C)NC(=O)[C@H](C)NC(=O)[C@H](CCCCN)NC(=O)CNC(=O)[C@@H](NC(=O)[C@H](Cc1cnc[nH]1)NC(=O)[C@H](CCCCN)NC(=O)CNC(=O)[C@@H](NC(=O)[C@H](Cc1cnc[nH]1)NC(=O)[C@H](C)NC(=O)[C@H](C)NC(=O)[C@H](CCCCN)NC(=O)[C@H](CCCCN)NC(=O)[C@H](Cc1ccccc1)NC(=O)[C@H](Cc1ccccc1)NC(=O)[C@H](CO)NC(=O)[C@H](C)NC(=O)[C@H](Cc1c[nH]c2ccccc12)NC(=O)[C@H](C)N)C(C)C)C(C)C)[C@@H](C)O)C(=O)O` [AWASFFKKAAHVGKHVGKAALTHYL], the MIC in experiment [1] was 2.92 µM (≈ 8 µg/mL); in [2], 2.92 µM (≈ 8 µg/mL); in [3], 23.4 µM (≈ 64 µg/mL); in experiment [4] it was 5.84 µM (≈ 16 µg/mL).
As for `CC[C@H](C)[C@H](N)C(=O)N[C@@H](CC(C)C)C(=O)N1CCC[C@H]1C(=O)N[C@@H](Cc1c[nH]c2ccccc12)C(=O)N[C@@H](CCCCN)C(=O)N[C@@H](Cc1c[nH]c2ccccc12)C(=O)N1CCC[C@H]1C(=O)N[C@@H](Cc1c[nH]c2ccccc12)C(=O)N[C@@H](CC(C)C)C(=O)N1CCC[C@H]1C(=O)N[C@@H](Cc1c[nH]c2ccccc12)C(=O)N[C@@H](CCCN=C(N)N)C(=O)N[C@@H](CCCN=C(N)N)C(N)=O` [ILPWKWPWLPWRR], the MIC in experiment [2] was 0.851 µM (≈ 1.56 µg/mL); in [5] it was 0.851 µM (≈ 1.56 µg/mL); in [4], 6.81 µM (≈ 12.5 µg/mL).
Regarding `CC(C)C[C@H](NC(=O)[C@H](Cc1ccc(O)cc1)NC(=O)[C@H](Cc1cnc[nH]1)NC(=O)[C@@H](NC(=O)[C@H](CC(C)C)NC(=O)[C@H](C)NC(=O)[C@H](C)NC(=O)[C@H](CCCCN)NC(=O)CNC(=O)[C@@H](NC(=O)[C@H](Cc1cnc[nH]1)NC(=O)[C@H](CCCCN)NC(=O)CNC(=O)[C@@H](NC(=O)[C@H](Cc1cnc[nH]1)NC(=O)[C@H](C)NC(=O)[C@H](C)NC(=O)[C@H](CCCCN)NC(=O)[C@@H](N)CCCCN)C(C)C)C(C)C)[C@@H](C)O)C(N)=O` [KKAAHVGKHVGKAALTHYL], the MIC in experiment [6] was at least 40 µM; in the experiment with Escherichia coli, 28.3 µM (≈ 57.4 µg/mL); in experiment [7] it was 40 µM (≈ 81.1 µg/mL); in [8] it was at least 40 µM; in experiment [9], at least 56.6 µM; in [10], at least 40 µM. Also, the MIC was 28.3 µM (≈ 57.4 µg/mL) against Staphylococcus aureus; at least 40 µM against Enterococcus faecium; 40 µM (≈ 81.1 µg/mL) against Pseudomonas aeruginosa; 28.3 µM (≈ 57.4 µg/mL) in experiment [11]; 28.3 µM (≈ 57.4 µg/mL) in [12].
`CC(C)C[C@H](NC(=O)[C@H](CO)NC(=O)[C@@H]1CCCN1C(=O)[C@H](CO)NC(=O)[C@H](CC(C)C)NC(=O)[C@@H](N)CCCCN)C(=O)NCC(=O)N1CCC[C@H]1C(=O)N[C@H](C(=O)N[C@@H](CO)C(=O)N[C@@H](CCCCN)C(=O)NCC(=O)N[C@@H](CCCCN)C(=O)N[C@@H](CC(C)C)C(=O)N[C@@H](CC(C)C)C(=O)N[C@@H](C)C(=O)NCC(=O)N[C@@H](CCC(N)=O)C(=O)N[C@@H](CCCN=C(N)N)C(N)=O)C(C)C` [KLSPSLGPVSKGKLLAGQR]: the MIC in [13] is 33 µM (≈ 63.9 µg/mL); in [14] it was at least 66 µM.
Consider `CC[C@H](C)[C@H](NC(=O)[C@H](CCCCN)NC(=O)[C@H](CCCCN)NC(=O)[C@H](Cc1ccccc1)NC(=O)[C@H](CC(C)C)NC(=O)[C@H](CCCCN)NC(=O)[C@H](Cc1c[nH]c2ccccc12)NC(=O)[C@@H](N)CCCCN)C(=O)N[C@@H](CC(C)C)C(=O)N[C@@H](CCCCN)C(=O)N[C@@H](Cc1ccccc1)C(=O)N[C@@H](CC(C)C)C(=O)N[C@@H](Cc1cnc[nH]1)C(=O)N[C@@H](CC(C)C)C(=O)N[C@@H](C)C(=O)N[C@@H](CCCCN)C(=O)N[C@@H](CCCCN)C(=O)N[C@@H](Cc1ccccc1)C(N)=O` [KWKLFKKILKFLHLAKKF], for which the minimal inhibitory concentration (MIC) in experiment [15] is at least 50 µM; in [16] it was 1.56 µM (≈ 3.61 µg/mL); in experiment [17] it was 25 µM (≈ 57.9 µg/mL); in experiment [18], 25 µM (≈ 57.9 µg/mL); in experiment [19], 3.12 µM (≈ 7.24 µg/mL); in the experiment on Proteus vulgaris it was 6.25 µM (≈ 14.5 µg/mL). Moreover, the MIC in [20] turned out to be 12.5 µM (≈ 29 µg/mL); in experiment [21] it was 3.12 µM (≈ 7.24 µg/mL); in [22] it was 1.56 µM (≈ 3.61 µg/mL); in experiment [23], 12.5 µM (≈ 29 µg/mL).
`CC(C)C[C@H](NC(=O)[C@H](CCCN=C(N)N)NC(=O)[C@@H]1CCCN1C(=O)[C@@H]1CCCN1C(=O)[C@H](CCCN=C(N)N)NC(=O)[C@@H]1CCCN1)C(=O)N1CCC[C@H]1C(=O)N[C@@H](CCCN=C(N)N)C(=O)N1CCC[C@H]1C(=O)N[C@@H](CCCN=C(N)N)C(=O)N1CCC[C@H]1C(=O)N[C@@H](CCCN=C(N)N)C(=O)N1CCC[C@H]1C(=O)N[C@@H](CC(C)C)C(=O)N1CCC[C@H]1C(=O)N[C@@H](Cc1ccccc1)C(=O)N1CCC[C@H]1C(=O)N[C@@H](CCCN=C(N)N)C(=O)N1CCC[C@H]1C(=O)O` [PRPPRLPRPRPRPLPFPRP]: the MIC was 64 µM (≈ 147 µg/mL) in [13]; at least 128 µM in [24]; 128 µM (≈ 294 µg/mL) in experiment [25]; at least 64 µM in the experiment with Escherichia coli ML-35; above 128 µM in experiment [12].
As to `CC(C)[C@@H]1NC(=O)[C@@H]2CSSC[C@@H]3NC(=O)[C@H](CCCCN)NC(=O)CNC(=O)[C@H](CCC(=O)O)NC(=O)[C@H](CC(=O)O)NC(=O)[C@H]([C@@H](C)O)NC(=O)[C@@H]4CCCN4C(=O)[C@@H](NC(=O)CNC(=O)[C@H](Cc4ccc(O)cc4)NC(=O)[C@@H]4CCCN4C(=O)[C@H](CC(N)=O)NC(=O)[C@H](CCC(=O)O)NC(=O)[C@@H](N)Cc4ccc(O)cc4)CSSC[C@H](NC(=O)[C@H](Cc4ccc(O)cc4)NC(=O)CNC(=O)CNC(=O)[C@H](CCC(=O)O)NC(=O)[C@H](Cc4ccccc4)NC(=O)[C@H](CCC(=O)O)NC(=O)[C@H](CO)NC(=O)[C@H](CC(=O)O)NC(=O)[C@H](CC(N)=O)NC(=O)[C@H](CSSC[C@@H](C(=O)N[C@@H](Cc4ccc(O)cc4)C(=O)N[C@@H](CCCN=C(N)N)C(=O)N[C@H](C(=O)O)[C@@H](C)O)NC1=O)NC(=O)[C@H](CCCN=C(N)N)NC(=O)[C@H](CC(=O)O)NC(=O)[C@H](Cc1ccccc1)NC3=O)C(=O)NCC(=O)NCC(=O)N[C@@H](CO)C(=O)N[C@@H](Cc1ccc(O)cc1)C(=O)N[C@@H](CCCN=C(N)N)C(=O)N[C@@H](C)C(=O)N[C@@H]([C@@H](C)O)C(=O)N2` [YENPYGCPTDEGKCFDRCNDSEFEGGYCGGSYRATCVCYRT], the minimum inhibitory concentration (MIC) in the experiment with Staphylococcus aureus is 7.5 µM (≈ 34.6 µg/mL); against Escherichia coli OP50, 30 µM (≈ 138 µg/mL).
